Experimental data reported in patent publication US20250026748A1, “N-(5-SUBSTITUTED-[(1,3,4-THIADIAZOLYL) OR (THIAZOLYL)])(SUBSTITUTED)CARBOXAMIDE COMPOUNDS AND USE THEREOF FOR INHIBITING HUMAN POLYMERASE THETA” (Repare Therapeutics Inc., priority 2021, published 2025).

Target: PolQ ATPase enzyme (1-894) (Homo sapiens (Human), UniProt O75417)
Test: Polθ ATPase enzymatic assay (0.5 nM enzyme concentration), ADP-Glo
Assay type: biochemical
Conditions: average IC50; 0.5 nM PolQ ATPase enzyme (1-894)
Description: PolQ ATPase enzyme (1-894) at 0.5 nM is incubated with a 10-point concentration response of inhibitors for 15 min at rt in the following buffer: 50 mM Tris Cl pH 7.5, 10% glycerol, 5 mM DTT, 10 mM MgCl2, 0.1 mg/ml BSA. Following pre-incubation with inhibitors, DNA (Fork C) at 20 nM and ATP at 100 μM are added to start the reaction. Enzymatic reaction proceeds at rt for 180 min ATP consumption is measured using the ADP-Glo assay from Promega. Luminescence is read on the Envision and IC50 are determined using the variable slope 4-parameters equation.
Oligos are annealed by heating at 9500 for 5 min in the following buffer (10 mM Tris-HCl pH7.5, 50 mM NaCl, 1 mM EDTA) and cooled to rt. […]

PolQ ATPase enzyme (1-894), sequence (O75417 1-894): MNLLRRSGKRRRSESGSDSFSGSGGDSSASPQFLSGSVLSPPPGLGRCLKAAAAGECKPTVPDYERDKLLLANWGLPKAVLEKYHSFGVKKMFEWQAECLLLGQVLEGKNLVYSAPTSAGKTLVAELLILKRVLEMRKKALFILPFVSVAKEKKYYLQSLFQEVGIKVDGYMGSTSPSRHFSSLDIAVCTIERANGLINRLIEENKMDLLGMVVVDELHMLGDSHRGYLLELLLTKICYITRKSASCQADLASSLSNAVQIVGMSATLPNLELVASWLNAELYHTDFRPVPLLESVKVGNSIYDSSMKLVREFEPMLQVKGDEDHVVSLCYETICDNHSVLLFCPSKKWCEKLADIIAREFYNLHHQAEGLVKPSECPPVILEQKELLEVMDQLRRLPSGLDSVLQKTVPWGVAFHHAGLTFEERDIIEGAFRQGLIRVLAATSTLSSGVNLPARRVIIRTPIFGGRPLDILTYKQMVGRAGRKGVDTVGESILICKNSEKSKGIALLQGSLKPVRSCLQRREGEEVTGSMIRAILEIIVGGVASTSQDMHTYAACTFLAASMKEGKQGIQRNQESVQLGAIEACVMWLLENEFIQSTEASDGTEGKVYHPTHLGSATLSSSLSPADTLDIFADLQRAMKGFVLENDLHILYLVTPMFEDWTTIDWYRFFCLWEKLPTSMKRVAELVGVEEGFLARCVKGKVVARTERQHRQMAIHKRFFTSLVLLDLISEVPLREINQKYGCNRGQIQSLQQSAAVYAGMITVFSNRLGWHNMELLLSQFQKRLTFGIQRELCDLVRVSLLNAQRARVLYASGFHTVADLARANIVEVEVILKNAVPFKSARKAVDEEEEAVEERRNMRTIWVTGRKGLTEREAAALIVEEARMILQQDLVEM

Structure (SMILES)	IC50 [nM]
Cc1nnc(Cn2cc(-c3cc(C(F)F)ccc3Cl)c(C(=O)Nc3ncc(C#CC4CC4)s3)cc2=O)o1 [Compound 114, 5-(2-chloro-5-(difluoromethyl)phenyl)-N-(5-(cyclopropylethynyl)thiazol-2-yl)-1-((5-methyl-1,3,4-oxadiazol-2-yl)methyl)-2-oxo-1,2-dihydropyridine-4-carboxamide]	0.26
COc1ccc(C(F)(F)F)cc1-c1cn(C)c(=O)cc1C(=O)Nc1nnc(C#CC2CCCOC2)s1 (centres unmarked) [Compound 336]	33
COc1cnc(C(F)F)cc1-c1cnccc1C(=O)Nc1nnc(C2C[C@H]2c2ccc(C#N)nc2)s1 (some centres unmarked) [Compound 266]	4.4
COc1cnc(C(F)F)cc1-c1cc(-c2ccn(C)n2)cnc1C(=O)Nc1ncc(C#CC2CC2)s1 [Compound 139, N-(5-(cyclopropylethynyl)thiazol-2-yl)-2′-(difluoromethyl)-5′-methoxy-5-(1-methyl-1H-pyrazol-3-yl)-[3,4′-bipyridine]-2-carboxamide]	61
COc1cnc(C(F)F)cc1-c1cc(N2CCC(n3ccnc3)CC2)ncc1C(=O)Nc1nnc(C#CC2CC2)s1 [Compound 125]	21
CNC(=O)Cc1ccc(C(=O)Nc2ncc(C#CC3CC3)s2)c(-c2cc(C(F)F)ncc2OC)c1 [Compound 204]	0.71
COc1cnc(Cl)cc1-c1cc(C2(C(=O)O)CC2)ccc1C(=O)Nc1nnc(C#CC2CC2)s1 [Compound 250]	1.3
COc1cnc(C(F)F)cc1-c1cc(C#CC(C)(C)CO)ccc1C(=O)Nc1nnc(C#CC2CC2)s1 [Compound 240]	0.73
COc1cnc(C(F)F)cc1-c1cc(-n2cc(F)ccc2=O)ncc1C(=O)Nc1nnc(C#CC2CC2)s1 [Compound 413]	< 0.25
COc1cnc(Cl)nc1-c1cc(CC#N)ccc1C(=O)Nc1nnc(C#CC2CC2)s1 [Compound 407]	< 0.25
COc1cnc(C(F)F)cc1-c1cc(C#CC2(n3cccn3)CC2)ncc1C(=O)Nc1nnc(C#CC2CC2)s1 [Compound 233]	< 0.25
COc1cnc(Cl)cc1-c1cn2cc(C(=O)N(C)C)nc2cc1C(=O)Nc1nnc(C#CC2CC2)s1 [Compound 314]	0.49
COc1cnc(Cl)cc1-c1cc(-c2n[nH]cc2C)ccc1C(=O)Nc1nnc(C#CC2CC2)s1 [Compound 298]	0.8
COc1cnc(C(F)F)cc1-c1cc(N2CCCCC2=O)ccc1C(=O)Nc1nnc(C#CC2CC2)s1 [Compound 212]	< 0.25
COc1cnc(C(F)F)cc1-c1cc(Cc2nnc(C)o2)ccc1C(=O)Nc1nnc(C#CC2CC2)s1 [Compound 244]	< 0.25
COc1cnc(Cl)cc1-c1cc(-c2cn[nH]c2)ccc1C(=O)Nc1nnc(C#CC2CC2)s1 [Compound 312]	0.94
CNC(=O)Cn1cc(-c2cc(C(F)(F)F)ccc2OC)c(C(=O)Nc2nnc(C#CC3CC3)s2)cc1=O [Compound 93]	0.32
COc1cnc(C(F)F)cc1-c1cn(C)c(=O)cc1C(=O)Nc1nnc(C#CC2CC2)s1 [Compound 37, N-(5-(cyclopropylethynyl)-1,3,4-thiadiazol-2-yl)-2′-(difluoromethyl)-5′-methoxy-1-methyl-6-oxo-1,6-dihydro-[3,4′-bipyridine]-4-carboxamide]	3.3
COc1cnc(C(F)F)cc1-c1cc(N2CCN(C)C3(CC3)C2=O)ncc1C(=O)Nc1ncc(C#CC2CC2)s1 [Compound 465]	0.27
COc1cnc(C(F)F)cc1-c1cc(N2CCCCC2=O)ccc1C(=O)Nc1ncc(C#CC2CC2)s1 [Compound 209]	0.67
COc1cnc(C(F)F)cc1-c1cc(-n2ccnc(C)c2=O)ncc1C(=O)Nc1nnc(C#CC2CC2)s1 [Compound 458]	0.1

Structure (SMILES)	IC50 [nM]
CNC(=O)Cn1cc(-c2cc(Cl)ncc2OC)c(C(=O)Nc2nnc(C#CC3CC3)s2)cc1=O [Compound 104]	0.31
O=C(Nc1ncc(C#CC2CC2)s1)c1cc(=O)n(Cc2ncco2)cc1-c1cc(C(F)F)ccc1Cl [Compound 207]	2.6
COc1cnc(Cl)cc1-c1cn(CC(N)=O)c(=O)cc1C(=O)Nc1nnc(C#CC2CC23CC3)s1 (centres unmarked) [Compound 83]	< 0.25
COc1cnc(C(F)F)cc1-c1cc(N2CCCC2=O)ncc1C(=O)Nc1ncc(C#CC2CC2)s1 [Compound 191]	15
COc1ccc(C(F)(F)F)cc1-c1cc(Cl)ncc1C(=O)Nc1nnc(C#CC2CC2)s1 [Compound 41]	< 0.25
COc1cnc(C(F)F)cc1-c1cc(-c2nnc(C)o2)ccc1C(=O)Nc1nnc(C2C[C@H]2c2ccc(C#N)cc2)s1 (some centres unmarked) [Compound 168]	0.34
COCCn1ccc(-c2cc(-c3cc(C(F)F)ncc3OC)c(C(=O)Nc3nnc(C#CC4CC4)s3)cn2)n1 [Compound 427]	0.27
COc1cnc(C(F)F)cc1-c1cc(-c2cn(C)cn2)ccc1C(=O)Nc1nnc(C#CC2CC2)s1 [Compound 201]	< 0.25
COc1cnc(C(F)F)cc1-c1cc(CC(=O)N(C)C)ncc1C(=O)Nc1nnc(C#CC2CC2)s1 [Compound 245]	< 0.25
COc1cnc(Cl)cc1-c1cnccc1C(=O)Nc1nnc(C#Cc2cc(C)[nH]n2)s1 [Compound 28, 3-(2-chloro-5-methoxy-4-pyridyl)-N-[5-[2-(5-methyl-1H-pyrazol-3-yl)ethynyl]-1,3,4-thiadiazol-2-yl]pyridine-4-carboxamide]	0.36
COc1cnc(C(F)F)cc1-c1cc(-c2nc(C)co2)ncc1C(=O)Nc1nnc(C#CC2CC2)s1 [Compound 430]	< 0.25
COc1cnc(Cl)cc1-c1cc(-c2ccn(C)n2)ccc1C(=O)Nc1nnc(C#CC2CC2)s1 [Compound 307]	< 0.25
COc1cnc(C(F)F)cc1-c1cc(Oc2cnn(C)c2)ncc1C(=O)Nc1nnc(C#CC2CC2)s1 [Compound 271]	0.64
COc1cnc(Cl)cc1-c1cc(C#CC2(O)COC2)ccc1C(=O)Nc1nnc(C#CC2CC2)s1 [Compound 54]	< 0.25
COc1cnc(C(F)F)cc1-c1cc(-c2cn(C)c(C)n2)ccc1C(=O)Nc1nnc(C#CC2CC2)s1 [Compound 412]	0.25
COc1cnc(C(F)F)cc1-c1cc(CCC2(O)CCS(=O)(=O)CC2)ccc1C(=O)Nc1nnc(C#CC2CC2)s1 [Compound 256]	2.9
COc1cnc(Cl)cc1-c1cnccc1C(=O)Nc1nnc(C2C[C@H]2c2ccc(C#N)cc2O)s1 (some centres unmarked) [Compound 273]	1.8
COc1cnc(C(F)F)cc1-c1cc(N2C(=O)[C@@H]3CC[C@H]2C3)ncc1C(=O)Nc1nnc(C#CC2CC2)s1 [Compound 368]	7.1
COc1cnc(Cl)cc1-c1cn2ncnc2cc1C(=O)Nc1nnc(C#Cc2cc(C)[nH]n2)s1 [Compound 97]	2
COc1cnc(C(F)F)cc1-c1cc(N(C)C(=O)C2(C)COC2)ccc1C(=O)Nc1nnc(C#CC2CC2)s1 [Compound 220]	0.78
COc1cnc(C(F)F)cc1-c1cc(N2CCCOC2=O)ncc1C(=O)Nc1nnc(C#CC2CC2)s1 [Compound 167]	< 0.25

Structure (SMILES)	IC50 [nM]
COc1cnc(C(F)F)cc1-c1cc(N2CCN(C)C(C)(C)C2=O)ncc1C(=O)Nc1nnc(C#CC2CC2)s1 [Compound 367]	0.27
COc1cnc(C(F)F)cc1-c1cc(-c2ccn(C)c2)ncc1C(=O)Nc1nnc(C#CC2CC2)s1 [Compound 411]	0.37
COc1cnc(C(F)F)cc1-c1cc(N2CCNCC2=O)ncc1C(=O)Nc1nnc(C#CC2CC2)s1 [Compound 364]	0.559
COc1cnc(C(F)F)cc1-c1cc(CC(=O)N2CC(C)(O)C2)ccc1C(=O)Nc1ncc(C#CC2CC2)s1 [Compound 205]	0.16
COc1cnc(C(F)F)cc1-c1cc(C#N)ncc1C(=O)Nc1nnc(C#CC2CC2)s1 [Compound 313]	0.87
COc1cnc(C(F)F)cc1-c1cc(Cl)ncc1C(=O)Nc1nnc(C#CC2CC2)s1 [Compound 291]	0.35
COc1cnc(C(F)F)cc1-c1cc(-c2cnn(C(F)F)c2)ncc1C(=O)Nc1nnc(C#CC2CC2)s1 [Compound 349]	< 0.25
COc1cnc(C(F)F)cc1-c1cc(-n2cccn2)ncc1C(=O)Nc1nnc(C#CC2CC2)s1 [Compound 261]	0.62
COc1cnc(C(F)F)cc1-c1cc(Nc2ccn(C)n2)ccc1C(=O)Nc1nnc(C#CC2CC2)s1 [Compound 166]	0.52
C#Cc1cc(-c2cc(C(F)F)ncc2OC)c(C(=O)Nc2nnc(C#CC3CC3)s2)cn1 [Compound 269]	0.38
Cc1nnc(-n2cc(-c3cc(C(F)(F)F)ccc3Cl)c(C(=O)Nc3nnc(C#CC4CC4)s3)cc2=O)o1 [Compound 429]	< 0.25
COc1cnc(C(F)F)cc1-c1cc(N2CCC(C)CC2=O)ncc1C(=O)Nc1nnc(C#CC2CC2)s1 (centres unmarked) [Compound 141]	< 0.25
COc1cnc(C(F)F)cc1-c1cc(OC[C@H]2CCOC2)ncc1C(=O)Nc1nnc(C#CC2CC2)s1 [Compound 149]	0.37
COc1cnc(C(F)(F)F)cc1-c1cnccc1C(=O)Nc1nnc(C#CC2CC23CC3)s1 (centres unmarked) [Compound 69]	0.28
COc1cnc(Cl)cc1-c1cc(C#CC2(O)CCOCC2)ccc1C(=O)Nc1nnc(C#CC2CC2)s1 [Compound 53]	0.31
COc1cnc(C(F)F)cc1-c1cc(C2CCOCC2)ncc1C(=O)Nc1nnc(C#CC2CC2)s1 [Compound 270]	9.9
COc1cnc(C(F)F)cc1-c1cc(-n2cc(F)c(C)cc2=O)ncc1C(=O)Nc1nnc(C#CC2CC2)s1 [Compound 414]	< 0.25
COc1cnc(C(F)F)cc1-c1cc(-c2ccncn2)ncc1C(=O)Nc1nnc(C#CC2CC2)s1 [Compound 135]	< 0.25
[2H]C([2H])([2H])N(C(=O)C1CCOC1)c1ccc(C(=O)Nc2nnc(C#CC3CC3)s2)c(-c2cc(C(F)F)ncc2OC)c1 (centres unmarked) [Compound 229]	1.4
COc1ccc(Cl)nc1-c1cnccc1C(=O)Nc1nnc(C#CC2CC2)s1 [Compound 339]	3.4
